Test: xn = mol fraction of the nth substance listed

CC(=O)CCC(=O)O + CCCC[N+](CCCC)(CCCC)CCCC.[Cl-]
Settings	electrical conductivity [S/m]	viscosity [mPa·s]
293.15 K, 101.33 kPa, x2 = 0.3333	–	609
298.15 K, 101.33 kPa, x2 = 0.3333	–	405
303.15 K, 101.33 kPa, x2 = 0.3333	–	276
308.15 K, 101.33 kPa, x2 = 0.3333	–	195
313.15 K, 101.33 kPa, x2 = 0.3333	–	141
318.15 K, 101.33 kPa, x2 = 0.3333	–	105
323.15 K, 101.33 kPa, x2 = 0.3333	–	79
328.15 K, 101.33 kPa, x2 = 0.3333	–	61
333.15 K, 101 kPa, x1 = 0.75	0.177	17.47
333.15 K, 101.33 kPa, x2 = 0.3333	–	48
338.15 K, 101.33 kPa, x2 = 0.3333	–	39
343.15 K, 101 kPa, x1 = 0.75	0.238	–
343.15 K, 101.33 kPa, x2 = 0.3333	–	32
348.15 K, 101.33 kPa, x2 = 0.3333	–	26
353.15 K, 101.33 kPa, x2 = 0.3333	–	22

CC[n+]1ccn(C)c1.C[C@H](N)C(=O)[O-] + CC[n+]1ccn(C)c1.N#C[C-](C#N)C#N
101 kPa, x2 = 0
Settings	viscosity [mPa·s]
308.15 K	137.5
313.15 K	103.5

CC[NH+](CC)CC.O=[N+]([O-])[O-] + CC[NH3+].O=[N+]([O-])[O-]
101 kPa, frequency 0.00293 MHz
Settings	electrical conductivity [S/m]
293.15 K, x1 = 0.149	1.28
293.15 K, x1 = 0.1997	1.15
293.15 K, x1 = 0.25	0.97
293.15 K, x1 = 0.2993	0.86
293.15 K, x1 = 0.3475	0.79
298.15 K, x1 = 0.149	1.52
303.15 K, x1 = 0.3475	1.12
313.15 K, x1 = 0.3995	1.38
313.15 K, x1 = 0.4472	1.23
323.15 K, x1 = 0.0999	3.31
323.15 K, x1 = 0.3995	1.8

101 kPa
Settings	viscosity [mPa·s]
293.15 K, x1 = 0.149	55.3
293.15 K, x1 = 0.1997	62.8
293.15 K, x1 = 0.25	69.1
293.15 K, x1 = 0.2993	76.9
293.15 K, x1 = 0.3475	83.5
298.15 K, x1 = 0.149	45.3
303.15 K, x1 = 0.3475	54.8
313.15 K, x1 = 0.3995	40.8
313.15 K, x1 = 0.4472	44.4
323.15 K, x1 = 0.0999	19.7
323.15 K, x1 = 0.3995	29.1
323.15 K, x1 = 0.5003	33.1
328.15 K, x1 = 0.149	18.1
328.15 K, x1 = 0.3995	25.1
328.15 K, x1 = 0.5003	28.3
328.15 K, x1 = 0.5485	27.4
333.15 K, x1 = 0.1997	17.5
333.15 K, x1 = 0.5003	24.7
333.15 K, x1 = 0.5485	23.9
338.15 K, x1 = 0.2993	17.3
338.15 K, x1 = 0.4472	20.3
343.15 K, x1 = 0.0499	11.6
343.15 K, x1 = 0.2993	15.3
348.15 K, x1 = 0.0999	11.1
348.15 K, x1 = 0.2993	13.7
348.15 K, x1 = 0.4472	15.7
353.15 K, x1 = 0.2993	12.4

[Br-].[Li+] + CCCCCCCCn1cc[n+](C)c1.N#C[S-] + CN1CCCC1=O
298.15 K, 101 kPa
Settings	viscosity [mPa·s]
x2 = 0, x1 = 0.02595	2.385
x2 = 0, x1 = 0.05088	3.13
x2 = 0, x1 = 0.07505	4.349

C=C[n+]1ccn(CCCC)c1.N[C@@H](CO)C(=O)[O-] + O
101.3 kPa
Settings	electrical conductivity [S/m]	viscosity [mPa·s]
293.15 K, x1 = 0.3	–	17
303.15 K, x1 = 0.1	1.37	6
303.15 K, x1 = 0.9	–	1832
323.15 K, x1 = 1	0.017	4800
333.15 K, x1 = 0.5	–	38.96
343.15 K, x1 = 1	–	1737
353.15 K, x1 = 0.1	–	4.35
353.15 K, x1 = 0.5	–	35.95
353.15 K, x1 = 1	–	1154

C[NH+](C)C.O=S(=O)([O-])O + O
298.15 K, 101 kPa
Settings	viscosity [mPa·s]
x2 = 0.0727	4.98
x2 = 0.2456	4.64
x2 = 0.3339	4.43
x2 = 0.5675	3.69
x2 = 0.8484	2.18
x2 = 0.9552	1.3

O=S(=O)([O-])C(F)(F)F.[Li+] + CCCC[n+]1ccn(C)c1.N#C[N-]C#N
electrical conductivity [S/m], 101 kPa
Settings	x2 = 0.8612	x2 = 0.8907	x2 = 0.9197	x2 = 0.9504	x2 = 0.9799
288.15 K	0.236	–	0.387	0.489	0.591
298.15 K	0.399	0.521	0.625	0.776	0.91
333.15 K	1.4	1.72	1.91	2.25	2.55

CC[N+](C)(CC)CCOC.F[B-](F)(F)F + CCCC[n+]1ccn(C)c1C.F[B-](F)(F)F
100 kPa
Settings	electrical conductivity [S/m]
313.15 K, x1 = 0.4	0.289
313.15 K, x1 = 0.7	0.302
318.15 K, x1 = 0.2	0.318
318.15 K, x1 = 0.4	0.361
318.15 K, x1 = 0.5	0.369
318.15 K, x1 = 0.8	0.41
318.15 K, x1 = 1	0.437
328.15 K, x1 = 0.1	0.492
328.15 K, x1 = 0.2	0.502
328.15 K, x1 = 0.5	0.555
328.15 K, x1 = 0.9	0.682
333.15 K, x1 = 0.5	0.685
338.15 K, x1 = 0.4	0.772
343.15 K, x1 = 0.4	0.913
348.15 K, x1 = 0.6	1.14
353.15 K, x1 = 0.2	1.18
353.15 K, x1 = 0.3	1.21
353.15 K, x1 = 0.4	1.24
353.15 K, x1 = 0.5	1.27
353.15 K, x1 = 0.7	1.38
353.15 K, x1 = 1	1.62
358.15 K, x1 = 0.3	1.39
358.15 K, x1 = 0.4	1.42
358.15 K, x1 = 0.8	1.61
363.15 K, x1 = 0.5	1.67
363.15 K, x1 = 1	2.1

CCCCCCCCCCCCCC[P+](CCCCCC)(CCCCCC)CCCCCC.N#C[N-]C#N + O
viscosity [mPa·s], 100 kPa
Settings	298.15 K	303.15 K
x1 = 0.5511	183	–
x1 = 0.8444	440	328

— the CheMixHub ionic liquid set
